Experimental data published in patent US20240294551A1 (AMGEN INC., priority 2022, published 2024).
Read-outs that look alike come from different tables or passages of the source.

Key:
[1] = molecular target: GDP-bound KRAS protein (aa 1-169), containing both G12D and C118A amino acid substitutions (Homo sapiens (Human), UniProt P01116, C118A/G12D); assay: KRAS G12D Coupled Nucleotide Exchange Assay; type: biochemical
Method: KRAS G12D Coupled Nucleotide Exchange Assay
Following compound pre-incubation, purified SOS protein (aa 564-1049) and GTP (Roche 10106399001) were added to the assay wells and incubated for an additional 30 min. To determine the extent of inhibition of SOS-mediated nucleotide exchange, purified GST-tagged cRAF (aa 1-149), nickel chelate AlphaLISA acceptor beads (PerkinElmer AL108R), and AlphaScreen glutathione donor beads (PerkinElmer 6765302) were added to the assay wells and incubated for 10 minutes. The assay plates were then read on a PerkinElmer EnVision Multilabel Reader, using AlphaScreen® technology, and data were analyzed using a 4-parameter logistic model to calculate IC50 values.

[2] = molecular target: His-tagged KRAS G12D protein (Homo sapiens (Human), UniProt P01116, G12D); assay: KRAS G12D TR-FRET Assay; type: binding
Chain of His-tagged KRAS G12D protein (P01116 other isoform, or with tags, fused parts or gaps G12D): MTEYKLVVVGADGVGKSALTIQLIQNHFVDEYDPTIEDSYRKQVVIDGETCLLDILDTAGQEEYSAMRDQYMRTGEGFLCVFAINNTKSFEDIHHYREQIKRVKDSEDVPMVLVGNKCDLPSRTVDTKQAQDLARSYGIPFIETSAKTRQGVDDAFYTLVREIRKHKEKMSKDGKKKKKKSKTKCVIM
Method: Compounds of interest were prepared in a dose-response titration in DMSO, and 80 nL were added via Labcyte Echo to each well of a 384-well plate (Perkin Elmer 6008280). The His-tagged KRAS G12D protein (Amgen) was diluted to 20 nM in Assay Buffer (20 mM HEPES, pH 7.4, 10 mM MgCl2, 50 mM NaCl, 0.1% BSA, 0.01% Tween-20, 10 μM GDP) and 2 μL was added to the appropriate wells of the 384-well plate. The plate was incubated for 30 minutes at room temperature. Biotinylated KRPep-2d substrate (Amgen) was diluted to 20 nM in Assay Buffer and 2 μL was added to all wells and incubated for 1 hour at room temperature. Detection Reagent (0.4 nM LANCE Eu-W1024 Anti-6×His (Perkin Elmer AD0401), 5 nM streptavidin-d2 (Cisbio 610SADLA)) was prepared in Assay Buffer, then 4 μL was added to the plate and incubated for 1 hour at room temperature. Plates were read using PerkinElmer EnVision (ex: 320 nm, em1: 665 nm, em2: 615 nm) and em1/em2 data was used to generate curve fits using a 4-parameter logistic model to calculate IC50 values.

[3] = read-out: KRAS G12D Coupled Exchange IC50
[4] = read-out: KRAS G12D Binding IC50
[5] = 2 hours compound pre-incubation, read-out: KRAS G12D Coupled Exchange
[6] = TR-FRET, read-out: KRAS G12D Binding

Chain of GDP-bound KRAS protein (aa 1-169), containing both G12D and C118A amino acid substitutions (P01116 other isoform, or with tags, fused parts or gaps G12D/C118A): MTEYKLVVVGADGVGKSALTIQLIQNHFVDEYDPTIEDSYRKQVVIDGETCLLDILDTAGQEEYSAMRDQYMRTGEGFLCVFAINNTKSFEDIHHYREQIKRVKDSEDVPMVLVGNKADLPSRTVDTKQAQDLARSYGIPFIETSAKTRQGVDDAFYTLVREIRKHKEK

IC50 [1, 3]	IC50 [2, 4]	IC50 [1, 5]	IC50 [2, 6]	Structure (SMILES)
4070 nM	4480 nM			Cc1cc2[nH]ncc2c2c1CCCCO[C@H](C)[C@@H]1CN(CCO1)c1nc(OC[C@@]34CCCN3C[C@H](F)C4)nc3c(F)c-2ncc13 [Example 243, (16R,17S)-30-fluoro-24-(((2R,7aS)-2-fluorotetrahydro-1H-pyrrolo[1,2-a]pyrrol-7a(5H)-yl)methoxy)-9,16-dimethyl-15,18-dioxa-5,6,21,23,25,29-hexaazahexacyclo[24.3.1.1~17,21~.0~2,10~.0~3,7~.0~22,27~]hentriaconta-1(30),2,4,7,9,22,24,26,28-nonaene]
		46 nM	97 nM	O=C1CCCCc2c(Cl)cc3[nH]ncc3c2-c2ncc3c(nc(OC[C@@]45CCCN4C[C@H](F)C5)nc3c2F)N2CC[C@H]3[C@@H](C2)N1CC3(F)F (single isomer, unassigned) [Example 402]
1490 nM	2260 nM			O=C1OCCCc2c(Cl)cc3[nH]ncc3c2-c2ncc3c(nc(OC[C@@]45CCCN4C[C@H](F)C5)nc3c2F)N2CCOC[C@@](CF)(C2)O1 [Example 310, (26R)-18-chloro-32-fluoro-26-(fluoromethyl)-4-(((2R,7aS)-2-fluorotetrahydro-1H-pyrrolo[1,2-a]pyrrol-7a(5H)-yl)methoxy)-23,25,28-trioxa-1,3,5,9,14,15-hexaazahexacyclo[24.4.1.1~6,10~.0~2,7~.0~11,19~.0~12,16~]dotriaconta-2,4,6(32),7,9,11,13,16,18-nonaen-24-one]
20 nM	102 nM			Cn1ncc2cc(Cl)c3c(c21)-c1ncc2c(nc(OC[C@@]45CCCN4C[C@H](F)C5)nc2c1F)N1CCOC[C@H](C1)OC(=O)OCCC3 [Example 364, (26S)-18-chloro-32-fluoro-4-(((2R,7aS)-2-fluorotetrahydro-1H-pyrrolo[1,2-a]pyrrol-7a(5H)-yl)methoxy)-13-methyl-23,25,28-trioxa-1,3,5,9,13,14-hexaazahexacyclo[24.4.1.1~6,10~.0~2,7~.0~11,19~.0~12,16~]dotriaconta-2,4,6,8,10(32),11,14,16,18-nonaen-24-one]
		15 nM	34 nM	O[C@H]1C[C@@H]2CN(C1)c1nc(OC[C@@]34CCCN3C[C@H](F)C4)nc3c(F)c(ncc13)-c1c(c(Cl)cc3[nH]ncc13)CCCc1nc2no1 [Example 378]
631 nM	938 nM			C[C@@]12COCCN(C1)c1nc(OC[C@@]34CCCN3C[C@H](F)C4)nc3c(F)c(ncc13)-c1c3c(cc4[nH]ncc14)CC[C@@H]3CCOC(=O)O2 [Example 366, (16S,22R)-34-fluoro-8-(((2R,7aS)-2-fluorotetrahydro-1H-pyrrolo[1,2-a]pyrrol-7a(5H)-yl)methoxy)-16-methyl-14,17,19-trioxa-3,7,9,11,28,29-hexaazaheptacyclo[20.9.1.1~2,6~.1~11,16~.0~5,10~.0~25,32~.0~27,31~]tetratriaconta-1(31),2(34),3,5,7,9,25(32),26,29-nonaen-18-one]

Continued, compound first:

Structure (SMILES)	IC50 [1, 3]	IC50 [2, 4]	IC50 [1, 5]	IC50 [2, 6]
O=C1OCCCc2c(Cl)cc3[nH]ncc3c2-c2ncc3c(nc(OC[C@@]45CCCN4C[C@H](F)C5)nc3c2F)N2CC[C@@H]3CCN1[C@@H]3C2 [Example 176, (28R,32S)-18-chloro-33-fluoro-4-(((2R,7aS)-2-fluorotetrahydro-1H-pyrrolo[1,2-a]pyrrol-7a(5H)-yl)methoxy)-23-oxa-1,3,5,9,14,15,25-heptaazaheptacyclo[23.5.2.1~6,10~.0~2,7~.0~11,19~.0~12,16~.0~28,32~]tritriaconta-2,4,6,8,10(33),11,13,16,18-nonaen-24-one]	179 nM	287 nM		
COc1nc2c3cnc(c(F)c3n1)-c1cc(O)cc3ccc(F)c(c13)CCCC(=O)N[C@]1(C)CCCN2C1 [Example 6, (15R)-22,31-Difluoro-27-hydroxy-8-methoxy-15-methyl-3,7,9,11,16-pentaazahexacyclo[19.7.1.1˜2,6˜.1˜11,15˜.0˜5,10˜.0˜25,29˜]hentriaconta-1(28),2(31),3,5,7,9,21,23,25(29),26-decaen-17-one bis(2,2,2-trifluoroacetate)]	125 nM	154 nM		
[O-][S+]1CCCCc2c(Cl)cc3[nH]ncc3c2-c2ncc3c(nc(OC[C@@]45CCCN4C[C@H](F)C5)nc3c2F)N2CCC[C@H](C2)C1 (mixture of isomers) [Example 144]	79 nM	146 nM		
Cc1nc2c3cnc(c(F)c3n1)-c1cc(O)cc3ccc(F)c(c13)CCCC(=O)N[C@]1(C)CCCN2C1.O=C(O)C(F)(F)F [Example 14, (15R)-22,31-Difluoro-27-hydroxy-8,15-dimethyl-3,7,9,11,16-pentaazahexacyclo[19.7.1.1˜2,6˜.1˜11,15˜.0˜5,10˜.0˜25,29˜]hentriaconta-1(28),2(31),3,5,7,9,21,23,25(29),26-decaen-17-one 2,2,2-trifluoroacetate]	296 nM	344 nM		
Cc1cc2[nH]ncc2c2c1CCCCCO[C@@H]1CCCN(C1)c1nc(OC[C@@]34CCCN3C[C@H](F)C4)nc3c(F)c-2ncc13 [Example 132]	67 nM	70 nM		
Cc1cc2[nH]ncc2c2c1CCC(=O)OCCC1CCCN(C1)c1nc(OC[C@@]34CCCN3C[C@H](F)C4)nc3c(F)c-2ncc13 (mixture of isomers) [Example 107]	42 nM	70 nM		
Cc1cc2[nH]ncc2c2c1CCCCC(=O)N[C@@H]1CN(C[C@@H]3C[C@@H]31)c1nc(OC[C@@]34CCCN3C[C@H](F)C4)nc3c(F)c-2ncc13 [Example 170, (26S,27S,29R)-32-fluoro-4-(((2R,7aS)-2-fluorotetrahydro-1H-pyrrolo[1,2-a]pyrrol-7a(5H)-yl)methoxy)-18-methyl-1,3,5,9,14,15,25-heptaazaheptacyclo[24.4.1.1~6,10~.0~2,7~.0~11,19~.0~12,16~.0~27,29~]dotriaconta-2,4,6,8,10(32),11,13,16,18-nonaen-24-one]	1540 nM	2490 nM		
Cc1c2ncc3c(nc(OCC(C)(C)O)nc13)N1CCC[C@](C)(C1)NC(=O)CCCc1c(F)ccc3cc(O)cc-2c13 [Example 26, (15R)-22-Fluoro-27-hydroxy-8-(2-hydroxy-2-methylpropoxy)-15,31-dimethyl-3,7,9,11,16-pentaazahexacyclo[19.7.1.1˜2,6˜.1˜11,15˜.0˜5,10˜.0˜25,29˜]hentriaconta-1(28),2(31),3,5,7,9,21,23,25(29),26-decaen-17-one]	109 nM	124 nM		
O=C1CCCc2c(F)ccc3cccc(c23)-c2ncc3c(nc(OC[C@@]45CCCN4C[C@H](F)C5)nc3c2F)N2CCOC[C@H](C2)O1 [Example 109]	196 nM	180 nM		
Cc1cc2[nH]ncc2c2c1[C@@H]1C[C@@H]1CCOC[C@H]1CN(CCO1)c1nc(OC[C@@]34CCCN3C[C@H](F)C4)nc3c(F)c-2ncc13 (single isomer, unassigned) [Example 225]	4770 nM	9620 nM		
Fc1c2ncc3c(nc(OC[C@@]45CCCN4C[C@H](F)C5)nc13)N1CCO[C@@H](CCOCCCc3c(Cl)cc4[nH]ncc4c3-2)C1 [Example 224]	39 nM	63 nM		
O=C1CCCCc2c(Cl)cccc2-c2ncc3c(nc(OC[C@@]45CCCN4C[C@H](F)C5)nc3c2F)N2CC[C@@H]3CCN1[C@@H]3C2 [Example 163, (25R,29S)-15-chloro-30-fluoro-4-(((2R,7aS)-2-fluorotetrahydro-1H-pyrrolo[1,2-a]pyrrol-7a(5H)-yl)methoxy)-1,3,5,9,22-pentaazahexacyclo[20.5.2.1~6,10~.0~2,7~.0~11,16~.0~25,29~]triaconta-2,4,6,8,10(30),11,13,15-octaen-21-one]	1570 nM	2840 nM		
